US20190167619A1, “PHARMACEUTICAL FORMULATIONS AND THEIR USE” (SIGNUM BIOSCIENCES, INC., priority 2016, published 2019)

Columns and labels:
[1] = Stability of a formulation comprising the disodium salt after storage at 5° C., HPLC (Example 3); type: physicochemical
Experimental: The stability of a formulation comprising the disodium salt of 4-(((R)-1-carboxy-2-(((2E,6E)-3,7,11-trimethyldodeca-2,6,10-trien-1-yl)thio)ethyl)amino)-4-oxobutanoic acid was determined after storage at 5° C. for a period of 1 month, 2 months, 3 months, 6 months, 9 months, 12 months, 18 months, and 24 months. In each case, the percentage of 4-(((R)-1-carboxy-2-(((2E,6E)-3,7,11-trimethyldodeca-2,6,10-trien-1-yl)thio)ethyl)amino)-4-oxobutanoic acid remaining at each time point was determined by use of HPLC. Each of the percentages in the table below are expressed at the weight percentage of the component as compared to the total weight of the composition.

[2] = Stability of a formulation comprising the disodium salt after storage at 25° C., HPLC (Example 2); type: physicochemical
Experimental: The stability of a formulation comprising the disodium salt of 4-(((R)-1-carboxy-2-(((2E,6E)-3,7,11-trimethyldodeca-2,6,10-trien-1-yl)thio)ethyl)amino)-4-oxobutanoic acid was determined after storage at 25° C. for a period of 4 months, 6 months, 9 months and 12 months. […]

SMILES | weight percentage of the component as compared to the total weight of the composition ([1]; 1 month, storage at 5° C.) | weight percentage of the component as compared to the total weight of the composition ([1]; 2 months, storage at 5° C.) | weight percentage of the component as compared to the total weight of the composition ([1]; 3 months, storage at 5° C.) | weight percentage of the component as compared to the total weight of the composition ([1]; 6 months, storage at 5° C.) | weight percentage of the component as compared to the total weight of the composition ([1]; 9 months, storage at 5° C.) | weight percentage of the component as compared to the total weight of the composition ([1]; 12 months, storage at 5° C.) | weight percentage of the component as compared to the total weight of the composition ([1]; 18 months, storage at 5° C.) | weight percentage of the component as compared to the total weight of the composition ([1]; 24 months, storage at 5° C.) | weight percentage of the component as compared to the total weight of the composition ([1]; Initial) | % age of sulfoxide of 4-(((R)-1-carboxy-2-(((2E,6E)-3,7,11-trimethyldodeca-2,6,10-trien-1-yl)thio)ethyl)amino)-4-oxobutanoic acid ([2]; Initial) | % age of sulfoxide of 4-(((R)-1-carboxy-2-(((2E,6E)-3,7,11-trimethyldodeca-2,6,10-trien-1-yl)thio)ethyl)amino)-4-oxobutanoic acid ([2]; after 1 month, storage at 25° C.) | % age of sulfoxide of 4-(((R)-1-carboxy-2-(((2E,6E)-3,7,11-trimethyldodeca-2,6,10-trien-1-yl)thio)ethyl)amino)-4-oxobutanoic acid ([2]; after 3 months, storage at 25° C.) | % age of sulfoxide of 4-(((R)-1-carboxy-2-(((2E,6E)-3,7,11-trimethyldodeca-2,6,10-trien-1-yl)thio)ethyl)amino)-4-oxobutanoic acid ([2]; after 6 months, storage at 25° C.) | % age of sulfoxide of 4-(((R)-1-carboxy-2-(((2E,6E)-3,7,11-trimethyldodeca-2,6,10-trien-1-yl)thio)ethyl)amino)-4-oxobutanoic acid ([2]; after 9 months, storage at 25° C.)
COC(=O)c1ccc(O)cc1 [Methylparaben] | 0.17 weight percentage | 0.17 weight percentage | 0.17 weight percentage | 0.18 weight percentage | 0.17 weight percentage | 0.17 weight percentage | 0.17 weight percentage | 0.15 weight percentage | 0.17 weight percentage | – | – | – | – | –
CCCOC(=O)c1ccc(O)cc1 [Propylparaben] | 0.032 weight percentage | 0.032 weight percentage | 0.033 weight percentage | 0.032 weight percentage | 0.033 weight percentage | 0.032 weight percentage | 0.033 weight percentage | 0.030 weight percentage | 0.034 weight percentage | – | – | – | – | –
CC(C)=CCC/C(C)=C/CC/C(C)=C/CSC[C@H](NC(=O)CCC(=O)O)C(=O)O [4-(((R)-1-carboxy-2-(((2E,6E)-3,7,11-trimethyldodeca-2,6,10-trien-1-yl)thio)ethyl)amino)-4-oxobutanoic acid] | – | – | – | – | – | – | – | – | – | 0.037% | 0.031% | 0.113% | 0.053% | 0.134%
